“And” between values parts separate entries of the source, which are not always exact repeats. Equal entries are not always repeated. “Also recorded” adds a separate entry of the source. Where two headings read alike, the source gives them in different places.
Assay: Tigecycline plasma PK and % F after PO enteric-coated capsule in dogs
Type: in vivo, Beagle dogs
Conditions: for bioavailability / AUC(0-t) / Cmax / Tmax / concentration at 0 min / concentration at 15 min / concentration at 30 min / concentration at 45 min: female, beagle, dog, plasma, po, 15 mg; for Tmax: read-out: Tmax (converted); for concentration at 0 min / concentration at 15 min / concentration at 30 min / concentration at 45 min: Tigecycline Plasma Concentration
Protocol: Adult beagle dogs weighing approximately 9 to 15 kg were used in the study. […] Room temperature was set to be maintained between approximately 20±5° C. Relative humidity was monitored but not controlled.
TEKLAD™ Certified Canine Diet was provided once daily in amounts (˜400 grams) appropriate for the size and age of the animals. Tap water was available ad libitum via automatic watering device or water bowls.
Oral dosing of enteric-coated capsules was accomplished by administering them to the back of the dog's mouth, followed by a chase of 5 mL water to ensure swallowing.
Water was provided ad libitum. […] Subsequently, each group of animals was dosed based on the protocol, i.e. either IV, or PO by capsule.
Minocycline (VWR international) was used as an internal standard. Sample processing/clean-up of plasma samples was carried out offline by protein precipitation with acidified acetonitrile using 0.5% trifluoroacetic acid (TFA).
The HPLC system consisted of Shimadzu SIL-HTc HPLC system equipped with dual Shimadzu LC-10ADvp isopumps, a Shimadzu CTO-10ASvp column temperature controller and a Shimadzu SPD-10Avp variable wavelength detector. […] Mobile phase A consisted of 23 mM phosphate buffer pH 2.5 with 4 mM 1-octanesulfonic acid, while mobile phase B consisting of 90% acetonitrile, 10% water, with 2 mM 1-octanesulfonic acid. […] The total runtime was 18 minutes per sample. The mobile phase flow rate was 1.2 mL/min. Detection was performed using the SPD-10Avp variable wavelength detector set at 350 nm, with a sensitivity of 0.001 aufs.
The samples were then centrifuged under refrigeration at 13 k rpm for 5 minutes. The supernatant was taken and the liquid removed to dryness under nitrogen in a turbovap. The dried extract was reconstituted in 60 μL of mobile phase A and the suspension was further centrifuged at 5 k rpm for 5 minutes to pellet any insoluble matter. The resulting supernatant was then injected onto the LC.
The unknown concentration in dog plasma samples was determined by interpolation of the peak area ratios of analyte:internal standard versus the ratio of their nominal concentrations into the regression line obtained from calibration standards spiked in pooled dog plasma. No regression weighting was used for the calculations. […] The calibration curve covered the range of 0.05 μg/mL to 5 μg/mL. […]
The capsules were enterically coated using a standard preclinical protocol to 10% weight gain. Two studies were conducted.

[1] = 15 min, PO 15 mg unformulated enteric-coated capsule, SC424, individual dogs
[2] = 30 min, PO 15 mg unformulated enteric-coated capsule, SC424, individual dogs
[3] = 45 min, PO 15 mg unformulated enteric-coated capsule, SC424, individual dogs

## CN(C)c1cc(NC(=O)CNC(C)(C)C)c(O)c2c1C[C@H]1C[C@H]3[C@H](N(C)C)C(O)=C(C(N)=O)C(=O)[C@@]3(O)C(O)=C1C2=O [Tigecycline]
[1]
  Tigecycline Plasma Concentration: 0.00 ng/mL
  concentration at 15 min: 0 µg/mL
[2]
  Tigecycline Plasma Concentration: 0.00 ng/mL
  concentration at 30 min: 0 µg/mL
[3]
  Tigecycline Plasma Concentration: 0.00 ng/mL
  concentration at 45 min: 0 µg/mL
60 min, PO 15 mg unformulated enteric-coated capsule, SC424, individual dogs
  Tigecycline Plasma Concentration: 0.00 ng/mL
75 min, PO 15 mg unformulated enteric-coated capsule, SC424, individual dogs
  Tigecycline Plasma Concentration: 0.00 ng/mL
90 min, PO 15 mg unformulated enteric-coated capsule, SC424, individual dogs
  Tigecycline Plasma Concentration: 0.00 ng/mL
120 min, PO 15 mg unformulated enteric-coated capsule, SC424, individual dogs
  Tigecycline Plasma Concentration: 0.00 ng/mL
150 min, PO 15 mg unformulated enteric-coated capsule, SC424, individual dogs
  Tigecycline Plasma Concentration: 0.00 ng/mL
PO 15 mg enteric-coated capsule with 500 mg CA and 100 mg LLC, SC424, calculated from IV data of SC427, individual dogs
  % F: 13.6% and 3.9% and 30.3% and 17.0% and 2.0% and 8.3% and 12.0% and 10.6%
PO 15 mg unformulated (microcrystalline cellulose filler) enteric-coated capsule (SC424)
  plasma exposure: No tigecycline exposure was observed; also recorded: did not result in observable plasma exposure
PO 30 mg enteric-coated capsule with 500 mg CA and 100 mg LLC, SC430, calculated from IV PK data of SC431, individual dogs
  % F: 7.9% and 23.3% and 12.8% and 2.6%
PO 30 mg unformulated (microcrystalline cellulose filler) enteric-coated capsule (SC430)
  plasma exposure: No tigecycline exposure was observed; also recorded: did not result in observable plasma exposure
PO 45 mg enteric-coated capsule with 500 mg CA and 100 mg LLC, SC430, calculated from IV PK data of SC431, individual dogs
  % F: 18.4% and 6.3% and 6.4% and 14.8% and 31.8%
15 mg Formulated (500 mg CA, 100 mg LLC) enteric coated capsule, Study 1 (SC424), mean (% CV), read-out: % F
  bioavailability: 12.2%
15 mg Formulated (500 mg CA, 100 mg LLC) enteric coated capsule, Study 1 (SC424), mean (% CV), read-out: AUC(0-t)
  AUC(0-t): 0.133 µg·h/mL
15 mg Formulated (500 mg CA, 100 mg LLC) enteric coated capsule, Study 1 (SC424), mean (% CV), read-out: Cmax
  Cmax: 0.0755 µg/mL
15 mg Formulated (500 mg CA, 100 mg LLC) enteric coated capsule, Study 1 (SC424), mean (% CV)
  Tmax: 1.85 h
15 mg Unformulated enteric coated capsule, Study 1 (SC424), read-out: % F
  bioavailability: 0%
PO 15 mg ([…]) enteric-coated capsule with 500 mg CA and 100 mg LLC (SC424), read-out: AUC(0-t), mean
  AUC(0-t): 0.133 µg·h/mL
PO 15 mg ([…]) enteric-coated capsule with 500 mg CA and 100 mg LLC (SC424), read-out: Cmax, mean
  Cmax: 0.0755 µg/mL
PO 15 mg ([…]) enteric-coated capsule with 500 mg CA and 100 mg LLC (SC424), read-out: absolute % F, mean
  bioavailability: 12.2%
PO 15 mg enteric-coated capsule with 500 mg CA and 100 mg LLC (SC424), read-out: % F, range of individual dogs
  bioavailability: 2 to 30%
PO 15 mg enteric-coated capsule with 500 mg CA and 100 mg LLC ([…]), SC424, mean, read-out: AUC(0-t)
  AUC(0-t): 0.133 µg·h/mL
PO 15 mg enteric-coated capsule with 500 mg CA and 100 mg LLC ([…]), SC424, mean, read-out: Cmax
  Cmax: 0.0755 µg/mL
PO 15 mg enteric-coated capsule with 500 mg CA and 100 mg LLC ([…]), SC424, mean
  Tmax: 1.85 h
PO 15 mg enteric-coated capsule with 500 mg CA and 100 mg LLC, SC424, calculated from IV data of SC427, mean, read-out: % F
  bioavailability: 12.2%
PO 15 mg unformulated enteric-coated capsule ([…]), SC424, individual dogs, read-out: % F
  bioavailability: 0%
PO 15 mg unformulated enteric-coated capsule ([…]), SC424, mean, read-out: % F
  bioavailability: 0%
Study 1 (SC424), 15 mg Formulated enteric coated capsule (500 mg citric acid, 100 mg LLC), oral, dogs, N=8, mean (% CV), based on that study's IV arm, read-out: % F
  bioavailability: 12.2%
Study 1 (SC424), 15 mg Formulated enteric coated capsule (500 mg citric acid, 100 mg LLC), oral, dogs, N=8, mean (% CV)
  Tmax: 1.85 h
Study 1 (SC424), 15 mg Formulated enteric coated capsule (500 mg citric acid, 100 mg LLC), oral, dogs, N=8, mean (% CV), sampling 4 h, read-out: AUC(0-t)
  AUC(0-t): 0.133 µg·h/mL
Study 1 (SC424), 15 mg Formulated enteric coated capsule (500 mg citric acid, 100 mg LLC), oral, dogs, N=8, mean (% CV), sampling 4 h, read-out: Cmax
  Cmax: 0.0755 µg/mL
Study 1 (SC424), 15 mg Unformulated enteric coated capsule (microcrystalline cellulose filler), oral, dogs, N=8, based on that study's IV arm, read-out: % F
  bioavailability: 0%
PO 15 mg enteric-coated capsule with 500 mg CA and 100 mg LLC, SC424, individual dogs
  concentration at 0 min: 0 µg/mL
PO 15 mg enteric-coated capsule with 500 mg CA and 100 mg LLC, SC424, mean
  concentration at 0 min: 0 µg/mL
15 min, PO 15 mg enteric-coated capsule with 500 mg CA and 100 mg LLC, SC424, individual dogs
  concentration at 15 min: 0 µg/mL
15 min, PO 15 mg enteric-coated capsule with 500 mg CA and 100 mg LLC, SC424, mean
  concentration at 15 min: 0 µg/mL
15 min, PO 15 mg unformulated enteric-coated capsule, SC424, mean
  concentration at 15 min: 0 µg/mL
30 min, PO 15 mg enteric-coated capsule with 500 mg CA and 100 mg LLC, SC424, individual dogs
  concentration at 30 min: 0 µg/mL
30 min, PO 15 mg enteric-coated capsule with 500 mg CA and 100 mg LLC, SC424, mean
  concentration at 30 min: 0 µg/mL
30 min, PO 15 mg unformulated enteric-coated capsule, SC424, mean
  concentration at 30 min: 0 µg/mL
45 min, PO 15 mg enteric-coated capsule with 500 mg CA and 100 mg LLC, SC424, mean
  concentration at 45 min: 0.00845 µg/mL
45 min, PO 15 mg unformulated enteric-coated capsule, SC424, mean
  concentration at 45 min: 0 µg/mL

From US9526785B2, “Pharmaceuticals for oral delivery” (Enteris BioPharma, Inc., priority 2013, dated 2016)
